# Patent publication US9702824B2, “pH sensors” (PROMEGA CORPORATION, priority 2012, dated 2017)
# Experiments:
# [1] = test system: U2-OS NLS cells (U2-OS cells stably expressing a HaloTag protein with a nuclear localization sequence); assay: Permeability, pulse with sensor and chase with Oregon Green (Example 4); assay type: cell-based; conditions: 0-20 uM pulse for 1 hour
# Protocol: Experiments were conducted during development of embodiments of the present invention to determine the permeability and specificity of the pH sensor. U2-OS cells (for specificity) and U2-OS NLS cells (U2-OS cells stably expressing a HaloTag protein with a nuclear localization sequence (NLS); for permeability) were treated with the PBI-4479 sensor. Cells were plated at 40,000 cells/well in 200 ul McCoy's 5A media+10% FBS (“complete media”) onto LTII chamber slides. The cells were then incubated overnight at 37° C., 5% CO2. The cells were then pulsed with PBI-4479 from 0-20 uM for 1 hour. […] Cells were then imaged on an Olympus FV500.
# [2] = test system: wild-type U2-OS cells; assay: Toxicity of HaloTag pH sensors, CELLTITER Glo Cell Viability Assay (Example 9); assay type: cell-based; conditions: 0-10 uM, overnight
# Protocol: U2-OS cells were plated at 10,000 cells/well into wells of 96-well plates and incubated overnight. The next day, 0-10 uM (serially diluted 1:2) PBI-4959, PBI-5004 or PBI-4479 was added to the cells and again incubated overnight. After incubation, the media containing the HaloTag® pH sensors was removed, and 100 ul of fresh media (McCoy's 5A+10% FBS) was added. Cell viability was determined using the CELLTITER Glo Cell Viability Assay according to the manufacturer's protocol (Promega Corporation). Luminescence was read on a GloMAX®-Multi luminometer.
# [3] = Stability in DMSO by fluorescent emission intensity; assay type: physicochemical; conditions: for Emission intensity, Ave: average of days 0-110; for Emission intensity: shielded from light, 562 nm, pH 4.0
# Protocol: (§1) PBI-4479 was dissolved to 2 mM in DMSO to approximately 2.33 mg/mL. Aliquots of 350 uL from the 2 mM solution were stored shielded from light at −20° C., 4° C. and room temperature. Stability was established by measuring fluorescent emission intensity and by testing HPLC purity at time 0, 1 day, 1 week, 1 month, 4 months, and 6 months from when the solutions were prepared and stored. For the fluorescence measurements, each aliquot was diluted (1 uL) into 4 mL of 0.1M sodium phosphate pH 4.0 directly into a 4.5 mL plastic cuvette and mixed by inversion of the vial. The maximum emission peak at 562 nm was acquired using a HoribaJobinYvon fluorometer using an excitation of 532 nm with 1.5 nm slit width. For HPLC measurements, each aliquot was diluted to 1 mM in 0.1M sodium phosphate pH 4.0, and 2 uL tested. The purity of each aliquot was tested using an Agilent 1100 liquid chromatography system equipped with a quaternary pump and a diode-array detector. The diode-array detector was set at 254 nm and 532 nm. The elution was performed using a mobile phase (A) containing 0.1% TFA in water, and a mobile phase (B) containing HPLC grade acetonitrile. A Phenomenex Synergi MAX-RP column (50×4.6 mm; 2.6 μm) was used to perform the chromatography. The HPLC was performed as follows: a gradient ran 3% to 60% mobile phase (B) to 3.60 minutes, a hold at 60% mobile phase (B) for 1 minute, a ramp up to 100% mobile phase (B) to 6 minutes, another hold at 100% mobile phase (B) for 2 minutes, and then back to 3% mobile phase (B) for 1.5 minutes. The column was given 2.5 minutes to re-equilibrate back to the starting conditions. In these conditions, the product elutes at approximately 3.7 minutes. Purity (as area percent) of the product was reported at 254 nm and 532 nm.
# [4] = Stability in DMSO by HPLC purity; assay type: physicochemical; conditions: 2 mM in DMSO; for HPLC Purity @ 532 nm, Ave: average of days 0-110; for HPLC Purity @ 532 nm: shielded from light
# Protocol: as §1
# [5] = pH dependence of fluorescence emission; assay type: physicochemical
# Protocol: Experiments were conducted during development of embodiments of the present invention to determine the fluorescence characteristics of exemplary pH sensor agents PBI-4453 and PBI-4479 (SEE FIG. 1). Fluorescence excitation and emission intensities were measured at a range of wavelengths (SEE FIG. 2). […] Fluorescence detection was performed at a range of pH values (SEE FIG. 3).
# [6] = test system: U2OS cells; assay: Toxicity, CELLTITER-GLO Luminescent Cell Viability Assay (Example 3); assay type: cell-based; conditions: 0 nM to 20 uM, 24 hour
# Protocol: The toxicity of dyes PBI-4479 and PBI-4453 was tested in U2OS cells. The cells were plated at 20,000 cells/well in McCoy's 5A media+10% FBS into wells of a 96-well plate. The compounds were then serially diluted 2-fold in McCoy's 5A+10% FBS to a 10× working solution. 10 ul of the working solution was added to the cells to a final concentration of 0 nM to 20 uM. The treated cells were then incubated overnight at 37° C., 5% CO2. Toxicity was tested using Promega's CELLTITER-GLO Luminescent Cell Viability Assay according to the manufacturer's protocol. No toxicity was seen across varying concentrations of the compounds over the 24 hour period (SEE FIG. 9).
# [7] = molecular target: T1, U2-OS HaloTag-EDG1 cells (Homo sapiens, UniProt P21453); assay: Detection of internalization using an impermeable pH sensor (Example 13); assay type: cell-based; conditions: 500 nM sensor, with 1 uM S1P
# T1 construct: host or cells: U2-OS HaloTag-EDG1 cells
# T1 sequence (P21453 with tags, fused parts or gaps): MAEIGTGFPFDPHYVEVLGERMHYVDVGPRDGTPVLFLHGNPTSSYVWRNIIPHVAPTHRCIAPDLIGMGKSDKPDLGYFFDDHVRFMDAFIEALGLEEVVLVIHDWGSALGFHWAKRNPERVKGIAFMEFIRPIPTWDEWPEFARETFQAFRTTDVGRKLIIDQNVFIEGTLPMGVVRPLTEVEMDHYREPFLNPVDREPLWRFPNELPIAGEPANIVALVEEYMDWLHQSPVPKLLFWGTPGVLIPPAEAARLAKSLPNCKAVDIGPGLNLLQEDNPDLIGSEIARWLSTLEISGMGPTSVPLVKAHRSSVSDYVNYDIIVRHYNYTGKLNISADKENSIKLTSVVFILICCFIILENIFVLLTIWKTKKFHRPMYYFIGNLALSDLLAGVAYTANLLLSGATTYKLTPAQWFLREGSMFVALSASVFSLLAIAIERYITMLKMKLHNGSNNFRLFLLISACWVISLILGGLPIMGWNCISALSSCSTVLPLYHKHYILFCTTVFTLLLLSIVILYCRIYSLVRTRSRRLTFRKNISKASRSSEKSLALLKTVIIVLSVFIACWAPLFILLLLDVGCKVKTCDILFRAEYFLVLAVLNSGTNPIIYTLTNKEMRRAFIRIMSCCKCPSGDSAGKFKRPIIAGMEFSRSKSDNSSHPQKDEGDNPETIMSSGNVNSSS
# Protocol: The next day, the media was replaced with McCoy's 5A+0.5% cFBS and incubated overnight at 37° C./5% CO2. […] 1 uM S1P (Sphingosine-1-Phosphate) or carrier (DMSO) was then added to the cells, and images were acquired sequentially on Olympus FV500 at 37° C./5% CO2.
compound,measurement,setting,value
O=C(NCCOCCOCCOCCOCCOCCOCCCCCCCl)c1ccc(C(=O)[O-])c(-c2c3ccc(=[N+]4CCN(CCCCS(=O)(=O)O)CC4)cc-3oc3cc(N4CCN(CCCCS(=O)(=O)O)CC4)ccc23)c1 [PBI-4479],cell permeability (labeling of HaloTag-NLS),[1],impermeable
same,toxicity (cell viability),[2],non-toxicity
same,degradation by fluorescence intensity,[3]; 2 mM DMSO solution stored at room temperature,slight degradation
same,"Emission intensity, Ave","[3]; 2 mM in DMSO, 4° C.",2096856.0
same,"Emission intensity, Ave","[3]; 2 mM in DMSO, RT",2193684.0
same,Emission intensity,"[3]; 2 mM in DMSO, 4° C., 0 days",2109020
same,Emission intensity,"[3]; 2 mM in DMSO, 4° C., 1 day",2203160
same,Emission intensity,"[3]; 2 mM in DMSO, 4° C., 7 days",2055280
same,Emission intensity,"[3]; 2 mM in DMSO, 4° C., 30 days",2076310
same,Emission intensity,"[3]; 2 mM in DMSO, 4° C., 110 days",2040510
same,Emission intensity,"[3]; 2 mM in DMSO, RT, 0 days",2109020
same,Emission intensity,"[3]; 2 mM in DMSO, RT, 1 day",2641010
same,Emission intensity,"[3]; 2 mM in DMSO, RT, 7 days",2092940
same,Emission intensity,"[3]; 2 mM in DMSO, RT, 30 days",2158320
same,Emission intensity,"[3]; 2 mM in DMSO, RT, 110 days",1967130
same,Emission intensity,"[3]; 2 mM in DMSO, −20° C., 0 days",2109020
same,Emission intensity,"[3]; 2 mM in DMSO, −20° C., 1 day",2336260
same,Emission intensity,"[3]; 2 mM in DMSO, −20° C., 7 days",2006990
same,Emission intensity,"[3]; 2 mM in DMSO, −20° C., 30 days",2191770
same,Emission intensity,"[3]; 2 mM in DMSO, −20° C., 110 days",1926570
same,time stable,"[3]; 2 mM in DMSO, stored below room temperature, by emission intensity and HPLC purity",at least 180 days
same,"Emission intensity, Ave","[3]; 2 mM in DMSO, −20° C.",2114122.0
same,"HPLC Purity @ 532 nm, Ave",[4]; 4° C.,93.6 area percent
same,"HPLC Purity @ 532 nm, Ave",[4]; RT,92.5 area percent
same,HPLC Purity @ 532 nm,"[4]; 4° C., 0 days",91.8 area percent
same,HPLC Purity @ 532 nm,"[4]; 4° C., 1 day",92.5 area percent
same,HPLC Purity @ 532 nm,"[4]; 4° C., 7 days",93.9 area percent
same,HPLC Purity @ 532 nm,"[4]; 4° C., 30 days",95.7 area percent
same,HPLC Purity @ 532 nm,"[4]; 4° C., 110 days",93.9 area percent
same,HPLC Purity @ 532 nm,"[4]; RT, 0 days",91.8 area percent
same,HPLC Purity @ 532 nm,"[4]; RT, 1 day",91.3 area percent
same,HPLC Purity @ 532 nm,"[4]; RT, 7 days",92.5 area percent
same,HPLC Purity @ 532 nm,"[4]; RT, 30 days",95.1 area percent
same,HPLC Purity @ 532 nm,"[4]; RT, 110 days",91.8 area percent
same,HPLC Purity @ 532 nm,"[4]; −20° C., 0 days",91.1 area percent
same,HPLC Purity @ 532 nm,"[4]; −20° C., 1 day",93.9 area percent
same,HPLC Purity @ 532 nm,"[4]; −20° C., 7 days",92.7 area percent
same,HPLC Purity @ 532 nm,"[4]; −20° C., 30 days",95.8 area percent
same,HPLC Purity @ 532 nm,"[4]; −20° C., 110 days",95.2 area percent
same,"HPLC Purity @ 532 nm, Ave",[4]; −20° C.,93.7 area percent
same,pH at or below which maximal fluorescence intensity is exhibited,[5],≤ 3
same,percent of maximal fluorescence intensity,[5]; at pH 8 or higher,≤ 1%
same,pKa,[5]; from pH dependence of fluorescence,~6.1
same,toxicity (cell viability),[6],No toxicity
same,detection of HaloTag-EDG1 internalization,[7],ability to detect internalization of HaloTag-EDG1
